Results on two compounds are retold here after patent US8377895B2, “Cyclin-dependent protein kinases inhibitors of Scutellaria flavonoid organic amine derivatives, synthesis and use thereof” (priority 2008, dated 2013).

Series [1] in a line: in vivo.
Series [2] addresses Cdk1/Cyclin B (Homo sapiens, UniProt P06493). The series can be described thus: Cdk1/Cyclin B inhibitory activity, Z'-LYTE Kinase Assay. The series is classed as biochemical. The conditions noted are these: ATP 10 μM; 8 concentrations of 0.01-25 μM.
The nature of series [3]: Druggability screening: blood drug concentration and half-life. The conditions noted are these: equilibrium phase.
Series [4] deals with MCF-7. The series can be described thus: cells. The conditions noted are these: Homo sapiens.
In series [5] the test system is human gastric cancer BGC823 cell lines. The series can be described thus: Annexin V-PI double staining flow cytometry apoptosis, BGC823. The format is cell-based. The conditions noted are these: BGC823, concentration equals to IC50, 48 hours.
Series [6] deals with gastric (BGC-823). The series can be described thus: Anticancer activity in vitro (Table 3), BGC-823. The series is classed as cell-based, human.
Series [7] in a line: Druggability screening: protein binding rate. The format is in vitro ADME.
In series [8] the test system is Prostate (PC-3). The series can be described thus: Anticancer activity in vitro (Table 3), PC-3. The conditions noted are these: 48 h. The series is classed as cell-based, human.
The subject of series [9] is human gastric cancer BGC823 cell lines. The series can be described thus: MTT cancer cell growth inhibition, BGC823. The series is classed as cell-based.
Series [10] in a line: Distribution and plasma binding in rabbits (LC-DAD-MS). The series is classed as in vivo. The text has this:
The major metabolic process relates to the structures is illustrated in the following scheme.

The test system of series [11] is human cervical carcinoma HeLa cell line. The series can be described thus: Annexin V-PI double staining flow cytometry apoptosis, HeLa. The series is classed as cell-based. The conditions noted are these: concentration equals to IC50, 48 hours.
Series [12] is described as follows: Druggability screening: solubility in PBS (pH7.4). The format is physicochemical. The conditions noted are these: pH 7.4, aqueous buffer.
The subject of series [13] is human cervical carcinoma HeLa cell line. The series can be described thus: MTT cancer cell growth inhibition, HeLa. The format is cell-based.
The subject of series [14] is Breast (MCF-7). In words: Anticancer activity in vitro (Table 3), MCF-7. The format is cell-based, human.
The subject of series [15] is human breast cancer MCF-7. In words: MTT cancer cell growth inhibition, MCF-7. The format is cell-based.
Series [16] deals with human breast cancer MCF-7. The series can be described thus: Annexin V-PI double staining flow cytometry apoptosis, MCF-7. The series is classed as cell-based. The conditions noted are these: MCF-7, concentration equals to IC50, 48 hours. For orientation: A flow cytometer gives signals particle by particle.
For series [17], the system named is 58 kinds human tumor cell. The series can be described thus: NCI growth inhibition of 58 kinds human tumor cell. The series is classed as cell-based. The conditions noted are these: 48 h, by NCI, read-out: growth inhibition rates in vitro 58 kinds human tumor cell.

In brackets after ≈: the same amount, converted by molar mass.

Sequence of Cdk1/Cyclin B (P06493 whole entry): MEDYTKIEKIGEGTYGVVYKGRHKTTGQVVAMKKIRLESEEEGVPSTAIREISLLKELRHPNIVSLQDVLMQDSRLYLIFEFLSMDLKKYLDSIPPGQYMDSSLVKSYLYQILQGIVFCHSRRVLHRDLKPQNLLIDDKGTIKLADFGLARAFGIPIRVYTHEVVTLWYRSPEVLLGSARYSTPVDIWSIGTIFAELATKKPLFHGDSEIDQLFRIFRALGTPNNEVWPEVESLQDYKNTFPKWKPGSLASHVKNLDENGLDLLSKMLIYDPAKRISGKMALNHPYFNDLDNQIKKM
Sequence of Cdk1/Cyclin B (P14635 whole entry partner): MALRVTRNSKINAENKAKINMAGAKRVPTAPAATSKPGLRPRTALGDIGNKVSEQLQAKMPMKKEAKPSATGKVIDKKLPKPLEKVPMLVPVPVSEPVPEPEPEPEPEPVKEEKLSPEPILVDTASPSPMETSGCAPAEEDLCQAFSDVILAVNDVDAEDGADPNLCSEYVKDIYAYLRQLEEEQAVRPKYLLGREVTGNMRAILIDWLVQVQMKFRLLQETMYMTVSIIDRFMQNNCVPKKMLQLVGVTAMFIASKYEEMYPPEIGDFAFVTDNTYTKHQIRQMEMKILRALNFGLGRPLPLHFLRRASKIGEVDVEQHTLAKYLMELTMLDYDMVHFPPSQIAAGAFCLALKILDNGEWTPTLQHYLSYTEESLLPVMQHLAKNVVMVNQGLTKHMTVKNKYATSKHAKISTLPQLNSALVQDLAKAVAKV

Turning to `O=c1cc(-c2ccccc2)oc2cc(O)c(O)c(O)c12` [Baicalein, reference compound], the half-life in series [1] is 5.26 h. Moreover, the IC50 in [2] was 2.08 µM. In series [3], this compound yielded a Blood drug concentration of 26 nM.
For `CN1CCN(Cc2c(O)c(O)c(O)c3c(=O)cc(-c4ccccc4)oc23)CC1` [Methylpiperazine Baicalein, 5,6,7-trihydroxy-8-((4-methylpiperazin-1-yl)methyl)-2-phenyl-4H-chromen-4-one], the CC50 in series [4] (MCF7, read-out: MCF-7 LC50) was found to be 37.2 µM; in series [6] (Homo sapiens, BGC-823, 48 h, read-out: BGC-823 LC50), 62.7 µM; in series [14] (Homo sapiens, MCF7, 48 h, read-out: MCF-7 LC50), 31.3 µM. The 50% growth inhibitory concentration (GI50) in series [4] (MCF7, read-out: MCT-7 GI50) amounted to 10.9 µM; in [6] (Homo sapiens, BGC-823, 48 h), 6.4 µM; in series [8] (Homo sapiens) it was 8.2 µM; in [14] (Homo sapiens, MCF7, 48 h), 6.4 µM. In addition, the early apoptosis in series [5] is 69.2%; in series [11], 67.3%; in series [16], 72.3%. Besides, the “late apoptosis and cellular necrosis” value in [5] is 22.2%; in series [11], 27.1%; in series [16], 23.1%. Moreover, the “BGC-823 TGI” value in [6] (48 h) was 19.8 µM. Besides, the IC50 in series [6] (Homo sapiens, BGC-823, 48 h) was 23.1 µM; in series [8] (Homo sapiens), 21.1 µM; in series [9] (BGC-823, 24 h) it was 9.6 ± 0.21 µM; in series [9] (BGC-823, 48 h), 7.2 ± 0.23 µM; in series [9] (BGC-823, 72 h), 6.5 ± 0.19 µM; in series [2], 0.29 µM. The IC50 is 12.8 ± 0.2 µM in series [13] (24 h); 8.2 ± 0.15 µM in [13] (48 h); 6.7 ± 0.24 µM in [13] (72 h); 19.3 µM in series [14] (Homo sapiens, MCF7, 48 h); 13.7 ± 0.21 µM in [15] (MCF7, 24 h); 10.6 ± 0.17 µM in series [15] (MCF7, 48 h). The IC50 in [15] (MCF7, 72 h) was determined as 7.4 ± 0.25 µM. The fraction unbound was 0.02 in series [7] and 0.02 in series [10] (rabbit, plasma, dose-independent manner, read-out: bound to plasma (converted)). Besides, in [8], the “PC-3 TGI” value came to 19.8 µM. Also, the median lethal concentration (LC50) in series [8] (Homo sapiens) turned out to be 38.8 µM. Also, the tissue distribution entry in series [10] (LC-DAD-MS) is recorded as “rapidly distributed to various tissues”. Besides, in series [12], the concentration in solution (solubility) came to 6.02 µM (≈ 2.3 µg/mL). Moreover, the “MCF-7 TGI” value in series [14] (48 h) came out at 16.4 µM. Further, in series [17], the inhibition at 10 µM turned out to be 50%.

Usually half-life stands for the time in which the quantity being followed falls by half. One may read the IC50 as the concentration that inhibits the measured activity by half. A lower IC50 goes with inhibition by little substance. The term GI50 denotes the concentration that inhibits growth by half. What is called LC50 is the concentration that kills 50% of the test population. Usually solubility stands for the concentration that dissolves in the medium under given conditions. Lower therefore signals a poorly soluble substance. As a reminder, the inhibition is the change of the read-out against control, counted positive when it falls.
